In paper PMC4125463 (Cancer prevention research (Philadelphia, Pa.), 2014) one finds IC50 data, which are given here for one compound.

Holding throughout (format): biochemical
One test deals with p38α (Homo sapiens, UniProt Q16539). Nature of the test: […] kinase assay with recombinant active p38α.
A further test has as its target p110α (PI3-K) (Homo sapiens, UniProt P42336). Nature of the test: […] lipid kinase assay with recombinant active p110α.
Another test addresses ERK2 (Homo sapiens, UniProt P28482). The test is described as follows: […] kinase assay with recombinant active ERK2.

Sequence of ERK2 (P28482 2-360): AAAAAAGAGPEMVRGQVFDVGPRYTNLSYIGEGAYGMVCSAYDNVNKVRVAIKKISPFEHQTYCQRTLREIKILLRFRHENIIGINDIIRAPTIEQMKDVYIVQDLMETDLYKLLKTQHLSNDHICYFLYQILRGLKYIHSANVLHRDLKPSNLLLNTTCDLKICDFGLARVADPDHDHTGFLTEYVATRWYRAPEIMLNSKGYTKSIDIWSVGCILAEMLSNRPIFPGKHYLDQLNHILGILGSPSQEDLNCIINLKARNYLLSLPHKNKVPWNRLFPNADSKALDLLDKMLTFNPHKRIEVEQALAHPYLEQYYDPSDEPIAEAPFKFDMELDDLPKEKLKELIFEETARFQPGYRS
Sequence of p110α (PI3-K) (P42336 whole entry): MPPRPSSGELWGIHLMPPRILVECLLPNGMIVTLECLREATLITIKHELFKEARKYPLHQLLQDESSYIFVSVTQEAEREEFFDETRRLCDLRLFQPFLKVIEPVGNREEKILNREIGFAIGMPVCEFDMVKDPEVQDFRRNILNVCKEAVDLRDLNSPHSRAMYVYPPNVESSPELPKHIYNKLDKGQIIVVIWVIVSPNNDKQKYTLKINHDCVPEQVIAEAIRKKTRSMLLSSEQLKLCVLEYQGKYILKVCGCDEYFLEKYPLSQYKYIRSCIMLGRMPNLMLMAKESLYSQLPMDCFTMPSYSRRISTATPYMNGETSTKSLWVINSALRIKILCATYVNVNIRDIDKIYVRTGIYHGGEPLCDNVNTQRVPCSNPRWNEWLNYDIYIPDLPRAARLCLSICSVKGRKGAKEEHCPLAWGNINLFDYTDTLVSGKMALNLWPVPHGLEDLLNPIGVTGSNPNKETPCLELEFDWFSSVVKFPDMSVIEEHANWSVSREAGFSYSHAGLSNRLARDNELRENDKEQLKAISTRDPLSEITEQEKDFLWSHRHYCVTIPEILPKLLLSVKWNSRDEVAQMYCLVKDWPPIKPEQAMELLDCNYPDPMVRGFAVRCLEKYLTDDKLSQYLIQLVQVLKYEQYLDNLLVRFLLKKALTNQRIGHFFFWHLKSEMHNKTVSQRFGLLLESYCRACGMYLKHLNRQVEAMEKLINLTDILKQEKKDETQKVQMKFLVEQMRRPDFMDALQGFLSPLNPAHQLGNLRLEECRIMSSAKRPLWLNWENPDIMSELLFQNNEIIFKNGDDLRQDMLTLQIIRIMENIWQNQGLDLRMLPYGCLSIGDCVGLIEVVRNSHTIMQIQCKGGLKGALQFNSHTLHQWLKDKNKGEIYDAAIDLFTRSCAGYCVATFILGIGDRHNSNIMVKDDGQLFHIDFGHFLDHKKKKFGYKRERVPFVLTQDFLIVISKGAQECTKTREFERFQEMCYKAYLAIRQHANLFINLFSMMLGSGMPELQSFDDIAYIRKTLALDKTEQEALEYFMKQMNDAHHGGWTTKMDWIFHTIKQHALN
Sequence of p38α (Q16539 2-360): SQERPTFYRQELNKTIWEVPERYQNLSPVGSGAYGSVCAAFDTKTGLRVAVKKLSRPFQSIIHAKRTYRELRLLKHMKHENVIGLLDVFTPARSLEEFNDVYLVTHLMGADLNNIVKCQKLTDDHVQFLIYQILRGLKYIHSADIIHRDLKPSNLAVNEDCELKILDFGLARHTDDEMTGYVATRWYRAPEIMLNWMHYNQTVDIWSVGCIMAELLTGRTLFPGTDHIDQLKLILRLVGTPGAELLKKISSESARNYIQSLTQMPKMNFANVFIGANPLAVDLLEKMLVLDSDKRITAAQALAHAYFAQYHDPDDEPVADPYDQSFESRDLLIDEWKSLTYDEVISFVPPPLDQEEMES

A word on the IC50: it is the concentration that gives 50% inhibition. Turning to `O=C1CCC(O)(CCOC(=O)/C=C/c2ccc(O)c(O)c2)CC1` [HOEC, (+)-2-(1-hydroxyl-4-oxocyclohexyl) ethyl caffeate], the values for the IC50 on p38α, on p110α (PI3-K) and at ERK2 were 12.9 µM, 10.3 µM and 20.9 µM, respectively.
